Laboratory results reported in the NIST ThermoML archive (doi:10.1021/je2010038).
± gives the expanded uncertainty stated by the source.

Experiment: xn = mol fraction of the nth substance listed
Details: for mass density: Liquid, Vibrating tube method; for surface tension liquid-gas: Pendant drop shape

NCCO [2-aminoethan-1-ol] + O
mass density [kg/m3]
Details	x1 = 0.1122	x1 = 0.1643	x1 = 0.2278	x1 = 0.3067	x1 = 0.4077	x1 = 0.5412	x1 = 0.7264	x1 = 1
298.15 K, 101 kPa	1010.9 ± 0.7	1016.3 ± 0.7	1021.3 ± 0.7	1024.8 ± 0.7	1026.3 ± 0.7	1024.7 ± 0.7	1020 ± 0.7	1011.9 ± 0.7
303.15 K, 101 kPa	1008.4 ± 0.7	1013.8 ± 0.7	1018.2 ± 0.7	1021.4 ± 0.7	1022.8 ± 0.7	1021 ± 0.7	1016.2 ± 0.7	1008 ± 0.7
308.15 K, 101 kPa	1006.2 ± 0.7	1011 ± 0.7	1015.2 ± 0.7	1018.2 ± 0.7	1019.3 ± 0.7	1017.3 ± 0.7	1012.3 ± 0.7	1004 ± 0.7
313.15 K, 101 kPa	1003.5 ± 0.7	1008.3 ± 0.7	1012.1 ± 0.7	1014.7 ± 0.7	1015.7 ± 0.7	1013.5 ± 0.7	1008.5 ± 0.7	1000 ± 0.7
318.15 K, 101 kPa	1001.1 ± 0.7	1005.3 ± 0.7	1009 ± 0.7	1011.4 ± 0.7	1012 ± 0.7	1009.7 ± 0.7	1004.5 ± 0.7	996 ± 0.7
323.15 K, 101 kPa	998.1 ± 0.7	1002.3 ± 0.7	1005.6 ± 0.7	1007.8 ± 0.7	1008.3 ± 0.7	1005.9 ± 0.7	1000.6 ± 0.7	992 ± 0.7
328.15 K, 101 kPa	995.5 ± 0.7	999.2 ± 0.7	1002.4 ± 0.7	1004.4 ± 0.7	1004.6 ± 0.7	1002 ± 0.7	996.7 ± 0.7	988 ± 0.7
333.15 K, 101 kPa	992.3 ± 0.7	996.1 ± 0.7	999 ± 0.7	1000.7 ± 0.7	1000.8 ± 0.7	998.2 ± 0.7	992.7 ± 0.7	983.9 ± 0.7
338.15 K, 101 kPa	989.5 ± 0.7	992.7 ± 0.7	995.4 ± 0.7	997.1 ± 0.7	997 ± 0.7	994.2 ± 0.7	988.7 ± 0.7	979.8 ± 0.7
343.15 K, 101 kPa	986.1 ± 0.7	989.4 ± 0.7	991.9 ± 0.7	993.2 ± 0.7	993.1 ± 0.7	990.2 ± 0.7	984.6 ± 0.7	975.8 ± 0.7
348.15 K, 101 kPa	983 ± 0.7	985.9 ± 0.7	988.3 ± 0.7	989.5 ± 0.7	989.2 ± 0.7	986.2 ± 0.7	980.6 ± 0.7	971.6 ± 0.7
353.15 K, 101 kPa	979.4 ± 0.7	982.4 ± 0.7	984.5 ± 0.7	985.6 ± 0.7	985.2 ± 0.7	982.1 ± 0.7	976.5 ± 0.7	967.5 ± 0.7
358.15 K, 101 kPa	976.1 ± 0.7	978.7 ± 0.7	980.8 ± 0.7	981.8 ± 0.7	981.2 ± 0.7	978 ± 0.7	972.3 ± 0.7	963.4 ± 0.7
363.15 K, 101 kPa	972.5 ± 0.7	975 ± 0.7	976.9 ± 0.7	977.7 ± 0.7	977.1 ± 0.7	973.9 ± 0.7	968.1 ± 0.7	959.2 ± 0.7
373.1 K, 700 kPa	965.3 ± 0.7	967.2 ± 0.7	969 ± 0.7	969.4 ± 0.7	968.5 ± 0.7	965.3 ± 0.7	959.3 ± 0.7	950.9 ± 0.7
383.15 K, 700 kPa	957.4 ± 0.7	959.1 ± 0.7	960.6 ± 0.7	960.8 ± 0.7	959.8 ± 0.7	956.5 ± 0.7	950.6 ± 0.7	942.3 ± 0.7
393.15 K, 700 kPa	949.1 ± 0.7	950.7 ± 0.7	952 ± 0.7	952.1 ± 0.7	950.9 ± 0.7	947.6 ± 0.7	941.7 ± 0.7	933.5 ± 0.7
403.15 K, 700 kPa	940.6 ± 0.7	941.9 ± 0.7	943.1 ± 0.7	943.1 ± 0.7	941.9 ± 0.7	938.6 ± 0.7	932.7 ± 0.7	924.7 ± 0.7
413.15 K, 700 kPa	931.7 ± 0.7	932.9 ± 0.7	934 ± 0.7	933.8 ± 0.7	932.6 ± 0.7	929.3 ± 0.7	923.6 ± 0.7	915.7 ± 0.7
423.15 K, 700 kPa	922.3 ± 0.7	923.3 ± 0.7	924.3 ± 0.7	924.1 ± 0.7	922.8 ± 0.7	919.5 ± 0.7	914.1 ± 0.7	906.4 ± 0.7

surface tension liquid-gas [mN/m]
Details	x1 = 0.032	x1 = 0.069	x1 = 0.112	x1 = 0.164	x1 = 0.228	x1 = 0.307	x1 = 0.407	x1 = 0.541	x1 = 0.726	x1 = 1
303.15 K	66.75 ± 0.74	64.74 ± 0.72	63.58 ± 0.72	61.74 ± 0.71	59.27 ± 0.69	57.42 ± 0.68	55.78 ± 0.67	53.43 ± 0.66	50.59 ± 0.65	48.13 ± 0.63
313.15 K	65.51 ± 0.73	63.29 ± 0.72	62.55 ± 0.71	60.27 ± 0.7	58.19 ± 0.69	56.35 ± 0.68	54.82 ± 0.67	52.41 ± 0.66	49.63 ± 0.64	46.66 ± 0.63
323.15 K	64.31 ± 0.72	61.72 ± 0.71	61.16 ± 0.7	58.82 ± 0.69	56.85 ± 0.68	55.15 ± 0.67	53.4 ± 0.66	51.14 ± 0.65	48.42 ± 0.64	45.58 ± 0.62
333.15 K	62.46 ± 0.71	60.07 ± 0.7	59.39 ± 0.69	57.29 ± 0.68	55.39 ± 0.67	53.61 ± 0.66	51.77 ± 0.65	49.62 ± 0.64	47 ± 0.63	44.63 ± 0.62
